Experimental data as given in US6706663B2, “Herbicidal 3-heterocyclic substituted benzisothiazole and benzisoxazole compounds” (Wyeth, priority 2000, dated 2004).

Assays:
[1] = test system: ABUTH (Abutilon theophrasti); assay: Postemergence herbicidal evaluation; type: in vivo, Medic.; details: postemergence
How it was run: (§1)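 Seedlings grown for about two weeks were sprayed postemergence and then kept under standard greenhouse care. Injury was rated visually 4–5 weeks after treatment on a 0–9 scale against untreated controls, and ratings from repeat tests were averaged.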

[2] = test system: AMBEL (Ambrosia artemisifolia); assay: Postemergence herbicidal evaluation; type: in vivo, L.; details: postemergence
How it was run: as §1

[3] = test system: CASOB (Cassia obtusifolia); assay: Postemergence herbicidal evaluation; type: in vivo, L.; details: postemergence
How it was run: as §1

[4] = test system: CHEAL (Chenopodium album); assay: Postemergence herbicidal evaluation; type: in vivo, L.; details: postemergence
How it was run: as §1

[5] = test system: GALAP (Galium aparine); assay: Postemergence herbicidal evaluation; type: in vivo; details: postemergence
How it was run: as §1

[6] = test system: ECHCG (Echinochloa crus-galli); assay: Postemergence herbicidal evaluation; type: in vivo, (L.) Beau; details: postemergence
How it was run: as §1

[7] = test system: GLXMAW (Soybean, Williams); assay: Postemergence herbicidal evaluation; type: in vivo, Glycine max, (L.) Merr. cv Williams; details: postemergence
How it was run: as §1

[8] = test system: ORYSAT (Rice, Tebonnet); assay: Postemergence herbicidal evaluation; type: in vivo, Oryza sativa, (L.) Tebonnet; details: postemergence
How it was run: as §1

[9] = test system: ZEAMX (Corn, Field); assay: Postemergence herbicidal evaluation; type: in vivo, Zea mays, L.; details: postemergence
How it was run: as §1

[10] = test system: ABUTH (Abutilon theophrasti); assay: Preemergence herbicidal evaluation; type: in vivo, Medic.; details: rated 4-5 weeks after treatment
[11] = test system: AMBEL (Ambrosia artemisifolia); assay: Preemergence herbicidal evaluation; type: in vivo, L.; details: rated 4-5 weeks after treatment
How it was run: (§2)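 Seeds mixed with potting soil were planted atop about one inch of soil, then sprayed with test compound in aqueous acetone. Cups were kept in the greenhouse and rated visually 4–5 weeks after treatment on a 0–9 scale against untreated control.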

[12] = test system: CASOB (Cassia obtusifolia); assay: Preemergence herbicidal evaluation; type: in vivo, L.; details: rated 4-5 weeks after treatment
How it was run: as §2

[13] = test system: CHEAL (Chenopodium album); assay: Preemergence herbicidal evaluation; type: in vivo, L.; details: rated 4-5 weeks after treatment
How it was run: as §2

[14] = test system: GALAP (Galium aparine); assay: Preemergence herbicidal evaluation; type: in vivo; details: rated 4-5 weeks after treatment
How it was run: as §2

[15] = test system: IPOHE (Ipomoea hederacea); assay: Preemergence herbicidal evaluation; type: in vivo, (L.) Jacq.; details: rated 4-5 weeks after treatment
[16] = test system: ORYSAT (Rice, Tebonnet); assay: Preemergence herbicidal evaluation; type: in vivo, Oryza sativa, (L.) Tebonnet; details: rated 4-5 weeks after treatment
[17] = test system: TRZAWR (Wheat, Winter, cv Riband); assay: Preemergence herbicidal evaluation; type: in vivo, Triticum aestivum; details: rated 4-5 weeks after treatment
How it was run: as §2

[18] = test system: SAGPY (Sagittaria pygmaea); assay: Flooded paddy, preemergence weed control; type: in vivo, L.; details: rated 3-4 weeks after treatment, 0-9 rating scale
How it was run: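 Flooded silt loam pots, seeds in upper 0.5 cm, water held 1.5–3 cm deep; greenhouse; visual 0-9 score vs control.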

[19] = test system: ORYSAT (Rice, Tebonnet); assay: Flooded paddy, post-transplant rice tolerance; type: in vivo, Oryza sativa, (L.) Tebonnet; details: flooded paddy, post-transplant rice, rated 3-4 weeks after treatment, 0-9 rating scale
How it was run: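 Scores (0-9) reflect visual injury relative to untreated plants in flooded silt loam. Each pot held two transplanted ten-day-old seedlings under 1.5 to 3 cm standing water in the greenhouse.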

SMILES: Cn1c(C(F)(F)F)cc(=O)n(-c2ccc3snc(-c4ccco4)c3c2)c1=O [Compound 60, 3-[3-(2-furyl)-1,2-benzisothiazol-5-yl]-1-methyl-6-(trifluoromethyl)uracil]
- ABUTH herbicidal rating ([1]; rate 0.0320 kg/ha): 9.0
- ABUTH herbicidal rating ([1]; rate 0.0620 kg/ha): 9.0
- AMBEL herbicidal rating ([2]; rate 0.0320 kg/ha): 9.0
- AMBEL herbicidal rating ([2]; rate 0.0620 kg/ha): 9.0
- CASOB herbicidal rating ([3]; rate 0.0320 kg/ha): 1.0
- CASOB herbicidal rating ([3]; rate 0.0620 kg/ha): 4.0
- CHEAL herbicidal rating ([4]; rate 0.0320 kg/ha): 6.0
- CHEAL herbicidal rating ([4]; rate 0.0620 kg/ha): 5.0
- GALAP herbicidal rating ([5]; rate 0.0320 kg/ha): 7.0
- GALAP herbicidal rating ([5]; rate 0.0620 kg/ha): 9.0
- ECHCG herbicidal rating ([6]; rate 0.0320 kg/ha): 2.0
- ECHCG herbicidal rating ([6]; rate 0.0620 kg/ha): 2.0
- GLXMAW herbicidal rating ([7]; rate 0.0320 kg/ha): 5.0
- GLXMAW herbicidal rating ([7]; rate 0.0620 kg/ha): 7.0
- ORYSAT herbicidal rating ([8]; rate 0.0320 kg/ha): 3.5
- ORYSAT herbicidal rating ([8]; rate 0.0620 kg/ha): 4.0
- ZEAMX herbicidal rating ([9]; rate 0.0320 kg/ha): 5.5
- ZEAMX herbicidal rating ([9]; rate 0.0620 kg/ha): 6.0
- Preemergence herbicidal rating ABUTH ([10]; Rate 0.0620 kg/ha): 5.0
- Preemergence herbicidal rating ABUTH ([10]; Rate 0.1250 kg/ha): 5.0
- Preemergence herbicidal rating ABUTH ([10]; Rate 0.2500 kg/ha): 9.0
- Preemergence herbicidal rating AMBEL ([11]; Rate 0.0620 kg/ha): 0.0
- Preemergence herbicidal rating AMBEL ([11]; Rate 0.1250 kg/ha): 5.0
- Preemergence herbicidal rating AMBEL ([11]; Rate 0.2500 kg/ha): 9.0
- Preemergence herbicidal rating CASOB ([12]; Rate 0.0620 kg/ha): 0.0
- Preemergence herbicidal rating CASOB ([12]; Rate 0.1250 kg/ha): 0.0
- Preemergence herbicidal rating CASOB ([12]; Rate 0.2500 kg/ha): 0.0
- Preemergence herbicidal rating CHEAL ([13]; Rate 0.0620 kg/ha): 7.0
- Preemergence herbicidal rating CHEAL ([13]; Rate 0.1250 kg/ha): 9.0
- Preemergence herbicidal rating CHEAL ([13]; Rate 0.2500 kg/ha): 9.0
- Preemergence herbicidal rating GALAP ([14]; Rate 0.0620 kg/ha): 6.0
- Preemergence herbicidal rating GALAP ([14]; Rate 0.1250 kg/ha): 7.0
- Preemergence herbicidal rating GALAP ([14]; Rate 0.2500 kg/ha): 9.0
- Preemergence herbicidal rating IPOHE ([15]; Rate 0.0620 kg/ha): 0.0
- Preemergence herbicidal rating IPOHE ([15]; Rate 0.1250 kg/ha): 0.0
- Preemergence herbicidal rating IPOHE ([15]; Rate 0.2500 kg/ha): 9.0
- Preemergence herbicidal rating ORYSAT ([16]; Rate 0.0620 kg/ha): 1.0
- Preemergence herbicidal rating ORYSAT ([16]; Rate 0.1250 kg/ha): 4.0
- Preemergence herbicidal rating ORYSAT ([16]; Rate 0.2500 kg/ha): 6.0
- Preemergence herbicidal rating TRZAWR ([17]; Rate 0.0620 kg/ha): 1.0
- Preemergence herbicidal rating TRZAWR ([17]; Rate 0.1250 kg/ha): 4.0
- Preemergence herbicidal rating TRZAWR ([17]; Rate 0.2500 kg/ha): 6.0
- herbicidal rating, SAGPY ([18]; rate 0.0080 kg/ha): 0.0
- herbicidal rating, SAGPY ([18]; rate 0.0320 kg/ha): 0.0
- herbicidal rating, SAGPY ([18]; rate 0.1250 kg/ha): 2.5
- herbicidal rating, ORYSAT (rice tolerance) ([19]; rate 0.0080 kg/ha): 0.0
- herbicidal rating, ORYSAT (rice tolerance) ([19]; rate 0.0320 kg/ha): 1.5
- herbicidal rating, ORYSAT (rice tolerance) ([19]; rate 0.1250 kg/ha): 2.5
